Measurements reported in patent US20090048229A1, “Methods for promoting wakefulness” (priority 2007, published 2009).

Experiments:
butylryl cholinesterase = butylryl cholinesterase (Homo sapiens, UniProt P06276); assay: Inhibition of butyrylcholinesterase; type: biochemical; settings: read-out: Inhibition of BuChE (%) 10 μM
Experimental: The inhibition of butylryl cholinesterase was determined using methods known in the art e.g., Alcala Molel M. et al. (2003) Characterization of the anticholinesterase activity of two new tacrin-huperzine A hybrids. Neuropharmacology, 44 (6), 749-755.

[1] = system: rats trained to discriminate methamphetamine from saline; assay: Two-lever drug discrimination in methamphetamine trained rats; settings: 0.32-10 mg/kg p.o.
AChE = AChE (Homo sapiens, UniProt P22303); type: biochemical
AChE, sequence (P22303 32-614): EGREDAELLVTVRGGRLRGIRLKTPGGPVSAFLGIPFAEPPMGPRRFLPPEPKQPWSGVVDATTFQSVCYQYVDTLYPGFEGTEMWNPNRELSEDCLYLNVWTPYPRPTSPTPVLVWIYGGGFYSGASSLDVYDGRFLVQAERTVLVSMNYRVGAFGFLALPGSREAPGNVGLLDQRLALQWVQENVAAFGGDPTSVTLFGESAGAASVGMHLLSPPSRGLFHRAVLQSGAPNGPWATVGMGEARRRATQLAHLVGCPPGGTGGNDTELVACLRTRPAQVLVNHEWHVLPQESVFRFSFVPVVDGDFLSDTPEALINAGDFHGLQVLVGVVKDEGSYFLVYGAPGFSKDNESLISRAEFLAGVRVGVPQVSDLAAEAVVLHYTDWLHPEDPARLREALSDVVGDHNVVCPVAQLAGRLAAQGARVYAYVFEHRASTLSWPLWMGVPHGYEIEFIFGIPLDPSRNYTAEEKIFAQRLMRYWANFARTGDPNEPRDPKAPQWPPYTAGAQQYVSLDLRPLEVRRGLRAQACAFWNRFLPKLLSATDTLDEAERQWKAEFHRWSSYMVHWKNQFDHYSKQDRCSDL

BuChE = BuChE (Homo sapiens, UniProt P06276); assay: In vitro screening assay, BuChE inhibition; type: biochemical
BuChE, sequence (P06276 29-602): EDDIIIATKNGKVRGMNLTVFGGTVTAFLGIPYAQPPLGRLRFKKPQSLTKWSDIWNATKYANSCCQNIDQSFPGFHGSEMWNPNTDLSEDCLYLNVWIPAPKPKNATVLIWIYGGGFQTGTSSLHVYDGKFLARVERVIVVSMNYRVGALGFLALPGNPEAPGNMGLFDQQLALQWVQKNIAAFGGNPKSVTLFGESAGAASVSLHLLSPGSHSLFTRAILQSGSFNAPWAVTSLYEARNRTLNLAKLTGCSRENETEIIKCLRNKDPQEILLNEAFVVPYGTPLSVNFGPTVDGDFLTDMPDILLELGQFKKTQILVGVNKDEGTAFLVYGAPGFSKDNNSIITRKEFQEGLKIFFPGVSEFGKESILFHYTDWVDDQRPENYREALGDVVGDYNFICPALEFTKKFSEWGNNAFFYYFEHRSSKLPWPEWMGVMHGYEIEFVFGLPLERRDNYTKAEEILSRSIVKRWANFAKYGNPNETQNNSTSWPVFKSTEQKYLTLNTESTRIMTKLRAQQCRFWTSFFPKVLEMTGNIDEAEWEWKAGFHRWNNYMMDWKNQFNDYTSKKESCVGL
Description: An in vitro screening assay with various conjugates was completed according to the methods described in Ellman G L et al., Biochem Pharmacol., 7:88-95 (1961) and in Nadarajah B, J. Anal. Toxicol., 16:192-193 (1992), both of which are herein incorporated by reference in their entireties. The assay method was completed according to the following: […]

[2] = system: male CD IGS (Sprague Dawley derived) rats; assay: Induction of hypothermia after subcutaneous administration; type: in vivo, rat; settings: for Induction of hypothermia MED (mg/kg s.c.): hypothermia = fall in temperature of >0.5° C.; for fall in body temperature: subcutaneous administration
Description: Cholinergic agonists cause hypothermia through a central mechanism of action (Freedman et al, 1989. Direct measurement of muscarinic agents in the central nervous system of mice using ex vivo binding. Eur. J. Pharmacol. 174:253-260). […] Since a premise of the present invention is that carbomyl esters would liberate the conjugated amine in the CNS only after inhibition of acetylcholinesterase, induction of hypothermia provides a useful correlation with the acetylcholinesterase inhibition detected in vitro and in vivo.
Hypothermia was defined as a fall in temperature of >0.5° C.
Hypothermia is a marker of CNS penetration for ACHE inhibitors.
If less soluble, the maximum injection volume was 5 mL/kg.
Baseline temperatures were taken just before injection.

[3] = system: total cholinesterase activity in the brain; assay: Total cholinesterase activity in brain homogenate after i.p. injection; type: in vivo, rat; settings: brain 3 hours after injection; for Relative ChE Activity: relative to saline treated rats
Experimental: Animals were decapitated 3 hours after injection and the brains rapidly removed. The brain tissue was diced into small pieces, placed on ice and immediately homogenized with a Polytron PT1200 (Kinematic AG) in 10 ml ice cold Tris with 0.1% Triton-X and protease inhibitors. The protease inhibitors in the extraction buffer were Antipain (10 μM), Aprotinin (5 TIU/mg protein), Bestatin ([…]), Leupeptin (10 μM) and Pepstatin (1 μM). The final dilution of the homogenate in the final assay mixture was 120-fold.
Total cholinesterase activity was determined by a modification of the colorimetric method of Ellmann, et al. (Biochem. Pharmacol., 7:88-95 (1961)), as described above. Hydrolysis of acetylthiocholine was monitored indirectly by measurement of the formation of the conjugate between thiocholine and DTNB. Optical density at 405 nm was recorded during five (5) minutes employing a microplate spectrophotometer (Polarstar, BMG Labtech), and plotted against time. The initial rates were calculated from the slope of the linear portion of the graph.
Cholinesterase activity was normalized for protein content of the homogenate. Relative cholinesterase activity was calculated as the ratio of normalized cholinesterase activity in a rat treated with a control compound or a carbamoyl ester over normalized cholinesterase activity in saline treated rats.

male Wistar rats = assay: Wake promotion (EEG/EMG sleep-wake, locomotor activity, body temperature); type: in vivo, rat; settings: for rebound hypersomnolence: FIG. 3; for effect on body temperature: FIG. 4; for locomotor hyperactivity / stimulant activity: FIG. 5; for duration of wakefulness: administered 5 hours after lights on (CT-5), FIG. 2
Experimental: Test compounds in various dose ranges or vehicle were administered to male Wistar rats 5 hours after lights on (CT-5). EEG, EMG, locomotor activity, drink- and food-related activity, and body temperature were concurrently monitored for 30 hr before and after treatment from rats living in separate isolated recording chambers. Sleep-wake discriminations were carried out using SCORE2004™, proprietary real-time hardware and software technology of Hypnion, Inc. (Lexington, Mass.). Comparisons were made between the reference compounds: d-amphetamine, rivastigmine, modafinil, and the following carbamoyl ester test compounds: […]

[4] = molecular target: T1, human recombinant acetylcholinesterase (Homo sapiens, UniProt P22303); assay: biochemical; settings: for IC50: 30 min preincubation, 25° C., read-out: Inhibition of AChE IC50; for inhibition at 10 µM: read-out: Inhibition of AChE (%) 10 μM
T1 construct: purchased Sigma Chemical Co (St. Louis, Mo.) C1682
T1 sequence (P22303 32-614): as the sequence (P22303 32-614) above
Experimental: All reagents employed in this experiment were of analytical grade. Acetylthiocholine iodide and 5,5′-dithiobis-(2-nitro)benzoic acid (DTNB) and human recombinant acetylcholinesterase (C1682) were purchased from Sigma Chemical Co (St. Louis, Mo.).
The enzyme, compound or stigmine and buffer were preincubated for 30 minutes. At the end of the preincubation period, the substrate acetylthiocholine was added. The final assay mixture contained 10 mM Tris-buffer (pH 8), 0.3 mM Acetylthiocholine and 0.33 mM DTNB and 0.08 U/ml enzyme. At least five (5) different concentrations of the compound or stigmine were assayed per IC50 experiment.
Hydrolysis of acetylthiocholine was monitored indirectly by measurement of the formation of the conjugate between thiocholine and DTNB.

butylryl cholinesterase, sequence (P06276 29-602): as the sequence (P06276 29-602) above

Row | SMILES | inhibition at 10 µM (butylryl cholinesterase) | AChEI (%) 1 μM (AChE) | AChEI (%) 10 μM (AChE) | BuChEI (%) 10 μM (BuChE) | Induction of hypothermia MED (mg/kg s.c.) [2] | fall in body temperature [2] | IC50 [4] | inhibition at 10 µM [4] | further results
1 | C[C@H](Cc1ccccc1)N(C)C(=O)Oc1cccc([C@H](C)N(C)C)c1 [Compound 7, S-riva-l-methamphetamine] | 17% | 32% | 79% | 17% | ≦1 mg/kg s.c. | dose-related-related fall in body temperature | 3.2 µM | 79% | stimulus generalization (selection of methamphetamine lever) [1]: did not select the methamphetamine lever; ChE inhibition ([3]; 2 mg/kg i.p.): 38%; Relative ChE Activity ([3]; 2 mg/kg i.p.): 62%; rebound hypersomnolence (male Wistar rats; listed as Compound B): rebound hypersomnolence was not observed; rebound hypersomnolence (male Wistar rats; listed as compound B): lack of hypersomnolence; effect on body temperature (male Wistar rats; listed as Compound B): did not cause an increase in body temperature (hyperthermia), but rather caused an opposite reduction in body temperature; effect on body temperature (male Wistar rats; listed as compound B): absence of hypothermia; locomotor hyperactivity / stimulant activity (male Wistar rats; listed as Compound B): did not cause locomotor hyperactivity; locomotor hyperactivity / stimulant activity (male Wistar rats; listed as compound B): lack of locomotor stimulant activity; duration of wakefulness (male Wistar rats; listed as B): dose-related increase in wakefulness; duration of wakefulness (male Wistar rats; listed as Compound B): unexpectedly long increase in wakefulness that surpassed that seen with the reference compounds tested
2 | C[C@H](Cc1ccccc1)NC(=O)Oc1cccc([C@H](C)N(C)C)c1 [Compound 9, S-riva-l-amphetamine] | 90% | 35% | 79% | 90% | 10 mg/kg s.c. | dose-related-related fall in body temperature | 3.1 µM | 79% | BuChEI (%) 1 μM (BuChE; 1 μM): 27%; ChE inhibition ([3]; 8 mg/kg i.p.): 41%; Relative ChE Activity ([3]; 8 mg/kg i.p.): 59%; duration of wakefulness (male Wistar rats): dose-related increase in wakefulness
